Values quoted from earlier work in patent publication US11793953B2, “Inhalers and related methods” (Norton (Waterford) Limited, priority 2017, dated 2023).

Question: Which surface tension (as liquid at 25° C.) does the source give for FCC(F)(F)F [HFA134a, 1,1,1,2-tetrafluoroethane] here?
Answer: about 8 mN/m

Question: And the vapor pressure (at 20° C.)?
Answer: 572 kpa
